Measurements published in US20240336615A1, “CYCLOPROPYL-(HETERO)ARYL-SUBSTITUTED ETHYL-SULFOXIME-PYRIDINE DERIVATIVES” (Boehringer Ingelheim Vetmedica GmbH, priority 2023, published 2024).

Key:
[1] = system: adult R. sanguineus ticks; experiment: Contact activity against adult Rhipicephalus sanguineus (Example 5); settings: coated vials, 48 hours post-treatment, read-out: EC50 (contact activity, percentage mortality)
Method: Compounds of formulae (I), (Ia) and/or (Ib) formulated in 100% DMSO are diluted in a solution containing acetone and Triton X-100 (0.02%). The resulting formulation is used to coat the inner walls of glass scintillation vials and the filter paper covering the cap of the vial. Once dried, ten adult R. sanguineus ticks are added to the vials. The vials are incubated at 24° C., 95% relative humidity, and 12 hours of light/12 hours of dark until evaluation. Ticks are visually evaluated for mortality at 48 hours post-treatment. Compound efficacy at a given dose is expressed as percentage mortality. A dose response series is implemented to determine EC50 values.

Myzus persicae = experiment: Insecticidal test on Myzus persicae (Example 17); assay type: in vivo; settings: 144 h, 500 ppm, foliar application on Chinese cabbage, 6 days after application, read-out: control efficacy level (control rate)
Excerpt: The compounds of formula (I), (Ia) and/or (Ib) of the present invention or salts thereof are separately dispersed in water and diluted to 500 ppm and 50 ppm. Chinese cabbage plants are planted in plastic pots (diameter: 8 cm, height: 8 cm). Aphids (Myzus persicae) are propagated on the plants and then the number of surviving aphids is counted. The dispersion is applied to the foliage of the potted plants. After the plants are air dried, these are kept in a greenhouse. 6 days after the application, the number of the alive insects is counted on the plants. The control rate is calculated according to the following formula and the control efficacy is evaluated according to the following criteria. [formula] • Ta: the number of alive insects before the foliar application in a treated plot • T: the number of alive insects after the foliar application in a treated plot • Ca: the number of alive insects before the foliar application in an untreated plot • C: the number of alive insects after the foliar application in an untreated plot • A: the control rate is 100% • B: the control rate is 90 to 99% • C: the control rate is 80 to 89% • D: the control rate is 50 to 79%

adult C. felis fleas [2] = experiment: Ingestion activity against adult Ctenocephalides felis, membrane feeding, motility (Example 6); settings: 48 h, bovine blood via artificial membrane, 48h post treatment, read-out: EC50 (ingestion activity, % motility reduction)
Method: Compounds of formulae (I), (Ia) and/or (Ib) dissolved in 100% DMSO are added to bovine blood and offered via an artificial membrane feeding system to adult C. felis fleas. The motility of fleas is then visually inspected 48h post treatment. Efficacy is expressed in % motility reduction compared to controls containing blood treated with DMSO only. A dose response series is implemented to determine EC50 values.

A. aegypti L1 larvae = experiment: Activity against larvae of Aedes aegypti (Example 3); settings: 48 h at 27° C., read-out: EC50 (percentage of mortality, larvae)
Method: Eight A. aegypti L1 larvae in a total volume of 64 μL water are added to 384-well microplates containing compounds of formulae (I), (Ia) and/or (Ib) formulated in 100% DMSO. The plates are incubated for 48 h at 27° C. Individual well images are acquired and analyzed using a pipeline to quantitatively assess the amount of larvae biomass accumulating at the bottom of the well. The efficacy of a compound at a given dose is expressed as “percentage of mortality” and determined by comparison to average biomass descriptors of positive and negative control wells containing 1.0 μM Fipronil or DMSO only, respectively. Dose response assay are conducted to determine an EC50 value.

adult C. felis fleas [3] = experiment: Ingestion activity against adult Ctenocephalides felis, membrane feeding, alternative method (Examples 7 and 13); settings: Ctenocephalides felis
Method: Selected compounds of formula (I), (Ia) and (Ib) and compound “125” of WO 2021/033141 dissolved in 100% DMSO are diluted in bovine blood with sodium heparin anti-coagulant. The resulting formulation is offered via an artificial membrane feeding system to approximately 15 adult C. felis fleas previously dispensed into 24-well plates. The plates are then incubated in a double-chambered device. Visual evaluation for mortality is performed at 48 hours post-treatment. Compound efficacy at a given dose is expressed as percentage mortality and determined by normalization to positive and negative controls. A dose response series is implemented to determine EC50 values.
Compounds of formulae (I), (Ia) and/or (Ib) dissolved in 100% DMSO are diluted in bovine blood with sodium heparin anti-coagulant. The resulting formulation is offered via an artificial membrane feeding system to approximately 15 adult C. felis fleas previously dispensed into 24-well plates. The plates are then incubated in a double-chambered device. Visual evaluation for mortality is performed at 48 hours post-treatment. Compound efficacy at a given dose is expressed as percentage mortality and determined by normalization to positive and negative controls. A dose response series is implemented to determine EC50 values.

Plutella xylostella = experiment: Insecticidal test on Plutella xylostella (Example 15); assay type: in vivo; settings: 144 h, 500 ppm, Chinese cabbage seedling dip, 6 days after dip treatment, read-out: activity level (corrected mortality rate)
Method: The compounds of formula (I), (Ia) and/or (Ib) of the present invention or salts thereof are separately dispersed in water and diluted to 500 ppm and 50 ppm. Ten adults of Plutella xylostella are released onto Chinese cabbage seedlings and allowed to lay eggs thereon. 2 days after the release of the adults, the seedling is dipped in the dispersion for about 30 seconds. After air dried, the seedling is kept in a room at 25° C. 6 days after the dip treatment, the numbers of the dead and alive insects are counted. The corrected mortality rate is calculated according to the following formula and the insecticidal activity is evaluated according to the following criteria.

Laodelphax striatellus = experiment: Insecticidal test on Laodelphax striatellus (Example 16); assay type: in vivo; settings: 192 h, 500 ppm, rice seedling dip, 3rd-instar nymphs, 8 days after inoculation, read-out: activity level (corrected mortality rate)
Method: The compounds of formula (I), (Ia) and/or (Ib) of the present invention or salts thereof are separately dispersed in water and diluted to 500 ppm and 50 ppm. Rice plant seedlings are dipped in the dispersion for about 30 seconds. After air dried, the seedlings are put into a separate glass test tube and inoculated with ten 3rd-instar nymphs of Laodelphax striatellus and then the glass test tube is kept in a room at 25° C. 8 days after the inoculation, the numbers of the dead and alive insects are counted. The corrected mortality rate is calculated according to the following formula and the insecticidal activity is evaluated according to the following criteria.

Spodoptera litura = experiment: Insecticidal test on Spodoptera litura (Example 14); assay type: in vivo; settings: foliar, 192 h, 500 ppm, cabbage leaf dip, 2nd-instar larvae, 8 days after inoculation, read-out: activity level (corrected mortality rate)
Method: The compounds of formula (I), (Ia) and/or (Ib) of the present invention or salts thereof are separately dispersed in water and diluted to 500 ppm and 50 ppm. Cabbage leaves are dipped in the dispersion for about 30 seconds. After air dried, the leaves are placed in a plastic Petri dish with a diameter of 9 cm and inoculated with ten 2nd-instar larvae of Spodoptera litura, after which the dish is closed and then allowed to stand in a room at 25° C. 8 days after the inoculation, the numbers of the dead and alive insects are counted. The corrected mortality rate is calculated according to the following formula and the insecticidal activity is evaluated according to the following criteria.
[formula] [formula] • A: the corrected mortality rate is 100% • B: the corrected mortality rate is 90 to 99% • C: the corrected mortality rate is 80 to 89% • D: the corrected mortality rate is 50 to 79%

[4] = system: adult Ctenocephalides felis fleas; experiment: Contact activity against adult Ctenocephalides felis (Example 4); settings: adult C. felis, coated pipe cleaner in vial, 72 hours post-treatment, read-out: EC50 (contact activity, percentage mortality)
Method: Compounds of formulae (I), (Ia) and/or (Ib) dissolved in 100% DMSO are diluted in acetone to a desired concentration. The resulting formulation is used to coat the fibers of a 0.5-inch-long piece of pipe cleaner placed in a glass scintillation vial. The vial is capped with a rubber gasket and filter paper insert. After the acetone has evaporated, ten adult Ctenocephalides felis fleas are added to each vial. The vials are then incubated at 22° C., 80% relative humidity, and 12 hours of light/12 hours of dark until a visual evaluation for mortality is performed at 72 hours post-treatment. Compound efficacy at a given dose is expressed as percentage mortality and adjusted to remove background mortality observed in control vials containing DMSO only. A dose response series of treated vials is implemented to determine EC50 values.

[5] = adult C. felis, bovine blood with sodium heparin, membrane feeding, 48 hours post-treatment, read-out: EC50 (ingestion activity, percentage mortality, alternative method)
[6] = alternative method according to Example 7, mortality at 48 hours post-treatment, read-out: C. felis membrane feeding (ingestion/blood feeding) activity EC50

**Q.** What does the source list for `CCS(=N)(=O)c1cc(-c2ccc(C3CC3)cc2)cnc1-c1nc2cc(C(F)(F)C(F)(F)F)cnc2n1C` (centres unmarked) [Compound 11]?
**A.** EC50 [1]: 10000 to 100000 nM; pest or weed control at 500 ppm (Myzus persicae): 100%; EC50 (adult C. felis fleas [2]): < 1000 nM; EC50 (A. aegypti L1 larvae): < 40 nM; EC50 (adult C. felis fleas [3]; [5]): < 1000 nM; EC50 (adult C. felis fleas [3]; [6]): 816 nM; mortality at 500 ppm (Plutella xylostella): 100%; mortality at 500 ppm (Laodelphax striatellus): 100%; mortality at 500 ppm (Spodoptera litura): 100%; EC50 [4]: < 10000 nM

**Q.** How did the EC50 [1] turn out when `CCS(=N)(=O)c1cc(-c2ccc(C3(F)CC3)cc2)cnc1-c1nc2cc(C(F)(F)C(F)(F)F)nnc2n1C` (centres unmarked) [Compound 14] was run?
**A.** 10000 to 100000 nM

**Q.** And the pest or weed control at 500 ppm (Myzus persicae)?
**A.** 100%

**Q.** What about the EC50 (adult C. felis fleas [2]) of the same compound?
**A.** < 1000 nM

**Q.** And the EC50 (A. aegypti L1 larvae)?
**A.** < 40 nM

**Q.** And the EC50 (adult C. felis fleas [3]; [5])?
**A.** < 1000 nM

**Q.** And the EC50 (adult C. felis fleas [3]; [6])?
**A.** 195 nM

**Q.** What about the mortality at 500 ppm (Plutella xylostella) of the same compound?
**A.** 100%

**Q.** What about the mortality at 500 ppm (Laodelphax striatellus) of the same compound?
**A.** 100%

**Q.** What about the mortality at 500 ppm (Spodoptera litura) of the same compound?
**A.** 100%

**Q.** What about the EC50 [4] of the same compound?
**A.** < 10000 nM
